By IC50 is commonly meant the concentration that gives 50% inhibition. High values mean weaker potency, low ones greater potency.

SMILES strings stand for the structures.

T1 sequence (Q13191 whole entry, species assumed): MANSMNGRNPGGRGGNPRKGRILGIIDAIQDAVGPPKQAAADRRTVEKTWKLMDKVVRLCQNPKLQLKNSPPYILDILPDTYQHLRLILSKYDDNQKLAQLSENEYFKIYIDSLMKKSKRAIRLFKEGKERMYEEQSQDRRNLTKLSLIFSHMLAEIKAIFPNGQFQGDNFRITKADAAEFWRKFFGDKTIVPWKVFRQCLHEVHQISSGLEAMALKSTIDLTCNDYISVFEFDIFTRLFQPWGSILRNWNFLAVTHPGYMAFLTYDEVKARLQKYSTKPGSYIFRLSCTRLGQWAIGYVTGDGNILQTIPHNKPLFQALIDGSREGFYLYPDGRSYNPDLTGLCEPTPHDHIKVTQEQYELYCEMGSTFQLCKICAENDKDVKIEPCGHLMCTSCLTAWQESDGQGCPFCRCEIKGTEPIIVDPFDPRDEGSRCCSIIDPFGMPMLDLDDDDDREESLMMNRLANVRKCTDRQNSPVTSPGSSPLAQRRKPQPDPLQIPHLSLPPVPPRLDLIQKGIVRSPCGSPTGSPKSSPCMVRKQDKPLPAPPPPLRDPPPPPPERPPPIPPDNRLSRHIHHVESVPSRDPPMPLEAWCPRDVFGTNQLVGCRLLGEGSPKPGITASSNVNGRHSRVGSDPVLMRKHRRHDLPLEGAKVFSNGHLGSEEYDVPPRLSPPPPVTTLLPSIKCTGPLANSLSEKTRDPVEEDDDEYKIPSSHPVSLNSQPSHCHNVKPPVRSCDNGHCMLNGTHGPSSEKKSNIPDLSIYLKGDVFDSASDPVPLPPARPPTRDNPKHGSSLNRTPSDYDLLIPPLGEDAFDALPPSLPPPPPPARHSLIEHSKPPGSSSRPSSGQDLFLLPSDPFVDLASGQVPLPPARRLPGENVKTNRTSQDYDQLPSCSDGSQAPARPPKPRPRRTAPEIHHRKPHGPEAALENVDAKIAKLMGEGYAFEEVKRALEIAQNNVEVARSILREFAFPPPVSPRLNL

The assay concerns the target T1, Cbl-b (Homo sapiens, UniProt Q13191).
T1 construct: biotin (biotinylated)
Put plainly: Cbl-b probe displacement HTRF binding assay. Particulars: 0.4 nM biotinylated Cbl-b, 150 nM BODIPY probe. The procedure: The affinity with which compounds of the present dislcosure bind to Cbl-b was assessed using probe displacement homologous time resolved fluorescence (HTRF) assays. […] The assays were performed in assay buffer consisting of 20 mM Hepes, 150 mM NaCl, 0.01% Triton X-100, 0.5 mM TCEP, 0.01% BSA. On the day of the assay, a 20 point, 1:2 master serial dilution of each compound was prepared in DMSO to span a final concentration range of […] to 0 nM. Two hundred nanoliters of diluted compound was added to each well of a 384-well plate. Fifteen microliters of biotinylated-Cbl-b resuspended in assay buffer were added to each well and the plate incubated for 60 minutes at room temperature prior to addition of 5 μL of BODIPY™ probe in assay buffer. […] After a further 15 minutes of incubation at room temperature, 5 μl of Streptavidin-Terbium cryptate reagent at 5-fold final concentration was added to each well of the 384-well plate. Binding of a probe to Cbl-b results in an increase of HTRF signal. […] Percentage maximum activity in each test well was calculated based on DMSO (maximum activity, 0% displacement) and no protein control wells (baseline activity, 100% displacement). Binding affinity was determined from a dose response curve fitted using a standard four parameter fit equation.
(In general: TR-FRET usually uses a lanthanide donor and a delayed reading to cut background.)
For `CC1CC(c2cccc(-n3cc(C4CC4)c4c(CN5CCC[C@H](C)C5)c[nH]c4c3=O)c2)(c2nncn2C)C1` (mixture of isomers) [Example 15, 4-Cyclopropyl-6-{3-[3-methyl-1-(4-methyl-4H-1,2,4-triazol-3-yl)cyclobutyl]phenyl}-3-{[(3S′)-3-methylpiperidin-1-yl]methyl}-1H,6H,7H-pyrrolo[2,3-c]pyridin-7-one], the IC50 lay in the range of 100 to 1000 nM.

The compound `CC1CC(c2cccc(-n3cc(C4CC4)c4c(CO)c[nH]c4c3=O)c2)(c2nncn2C)C1` (mixture of isomers) [Example 16, 4-Cyclopropyl-3-(hydroxymethyl)-6-{3-[3-methyl-1-(4-methyl-4H-1,2,4-triazol-3-yl)cyclobutyl]phenyl}-1H,6H,7H-pyrrolo[2,3-c]pyridin-7-one] registered an IC50 of 100 to 1000 nM.

`CC1CC(c2cccc(-n3cc(C4CC4)c4cc(-c5cnn(C)c5)[nH]c4c3=O)c2)(c2nncn2C)C1` (mixture of isomers) [Example 32, 4-cyclopropyl-6-{3-[3-methyl-1-(4-methyl-4H-1,2,4-triazol-3-yl)cyclobutyl]phenyl}-2-(1-methyl-1H-pyrazol-4-yl)-1H,6H,7H-pyrrolo[2,3-c]pyridin-7-one] displayed an IC50 of 1000 to 5000 nM.

With `CC1CC(c2cccc(-n3cc(C(F)(F)F)c4c(C#N)c[nH]c4c3=O)c2)(c2nncn2C)C1` (mixture of isomers) [Example 136, 7-Oxo-6-{3-[(1R,3S)-3-methyl-1-(4-methyl-4H-1,2,4-triazol-3-yl)cyclobutyl]phenyl}-4-(trifluoromethyl)-1H,6H,7H-pyrrolo[2,3-c]pyridine-3-carbonitrile], the IC50 was less than 100 nM.

The compound `CC1CC(c2cccc(-n3cc(C(F)(F)F)c4c(S(C)(=O)=O)c[nH]c4c3=O)c2)(c2nncn2C)C1` (mixture of isomers) [Example 139, 3-Methanesulfonyl-6-{3-[(1S,3R)-3-methyl-1-(4-methyl-4H-1,2,4-triazol-3-yl)cyclobutyl]phenyl}-4-(trifluoromethyl)-1H,6H,7H-pyrrolo[2,3-c]pyridin-7-one] yielded an IC50 of less than 100 nM.

Compound `Cn1cnnc1[C@]1(c2cccc(-n3ccc4c(C5CC5)c[nH]c4c3=O)c2)C[C@H](C)C1` (single isomer, unassigned) [Example 13, 3-cyclopropyl-6-{3-[(1r,3s)-3-methyl-1-(4-methyl-4H-1,2,4-triazol-3-yl)cyclobutyl]phenyl}-1H,6H,7H-pyrrolo[2,3-c]pyridin-7-one] showed an IC50 of 100 to 1000 nM.

In the case of `Cn1cnnc1[C@]1(c2cccc(-n3cc(C4CC4)c4c(C(=O)O)c[nH]c4c3=O)c2)C[C@H](C)C1` (single isomer, unassigned) [Example 19, 4-Cyclopropyl-7-oxo-6-{3-[(1r,3s)-3-methyl-1-(4-methyl-4H-1,2,4-triazol-3-yl)cyclobutyl]phenyl}-1H,6H,7H-pyrrolo[2,3-c]pyridine-3-carboxylic acid], the IC50 fell in the range of 1000 to 5000 nM.

`Cn1cnnc1[C@]1(c2cccc(-n3cc(C4CC4)c4c(C(=O)O)c[nH]c4c3=O)c2)C[C@@H](C)C1` (single isomer, unassigned) [Example 20, 4-Cyclopropyl-7-oxo-6-{3-[(1s,3r)-3-methyl-1-(4-methyl-4H-1,2,4-triazol-3-yl)cyclobutyl]phenyl}-1H,6H,7H-pyrrolo[2,3-c]pyridine-3-carboxylic acid] had an IC50 of 1000 to 5000 nM.

`CC(=O)c1c[nH]c2c(=O)n(-c3cccc([C@]4(c5nncn5C)C[C@@H](C)C4)c3)cc(C3CC3)c12` (single isomer, unassigned) [Example 21, 3-Acetyl-4-cyclopropyl-6-{3-[(1r,3s)-3-methyl-1-(4-methyl-4H-1,2,4-triazol-3-yl)cyclobutyl]phenyl}-1H,6H,7H-pyrrolo[2,3-c]pyridin-7-one]: the IC50 was less than 100 nM.

The compound `CC(=O)c1c[nH]c2c(=O)n(-c3cccc([C@]4(c5nncn5C)C[C@H](C)C4)c3)cc(C3CC3)c12` (single isomer, unassigned) [Example 22, 3-Acetyl-4-cyclopropyl-6-{3-[(1s,3r)-3-methyl-1-(4-methyl-4H-1,2,4-triazol-3-yl)cyclobutyl]phenyl}-1H,6H,7H-pyrrolo[2,3-c]pyridin-7-one] came in with an IC50 of less than 100 nM.

For `CC(O)c1c[nH]c2c(=O)n(-c3cccc([C@]4(c5nncn5C)C[C@@H](C)C4)c3)cc(C3CC3)c12` (single isomer, unassigned) [Example 23], the IC50 fell in the range of 100 to 1000 nM.

On to `CC(O)c1c[nH]c2c(=O)n(-c3cccc([C@]4(c5nncn5C)C[C@H](C)C4)c3)cc(C3CC3)c12` (single isomer, unassigned) [Example 24], for which the IC50 lay in the range of 100 to 1000 nM.

For the compound `Cn1cnnc1[C@]1(c2cccc(-n3cc(C4CC4)c4c(S(C)(=O)=O)c[nH]c4c3=O)c2)C[C@H](C)C1` (single isomer, unassigned) [Example 25, 4-Cyclopropyl-3-methanesulfonyl-6-{3-[(1r,3s)-3-methyl-1-(4-methyl-4H-1,2,4-triazol-3-yl)cyclobutyl]phenyl}-1H,6H,7H-pyrrolo[2,3-c]pyridin-7-one], the IC50 lay in the range of 100 to 1000 nM.

Take `Cn1cnnc1[C@]1(c2cccc(-n3cc(C4CC4)c4c(S(C)(=O)=O)c[nH]c4c3=O)c2)C[C@@H](C)C1` (single isomer, unassigned) [Example 26, 4-Cyclopropyl-3-methanesulfonyl-6-{3-[(1s,3r)-3-methyl-1-(4-methyl-4H-1,2,4-triazol-3-yl)cyclobutyl]phenyl}-1H,6H,7H-pyrrolo[2,3-c]pyridin-7-one]: the IC50 was in the range of 100 to 1000 nM.

On to `Cn1cnnc1[C@]1(c2cccc(-n3ccc4c(C#N)c[nH]c4c3=O)c2)C[C@H](C)C1` (single isomer, unassigned) [Example 27, 7-Oxo-6-{3-[(1r,3s)-3-methyl-1-(4-methyl-4H-1,2,4-triazol-3-yl)cyclobutyl]phenyl}-1H,6H,7H-pyrrolo[2,3-c]pyridine-3-carbonitrile], for which the IC50 lay in the range of 100 to 1000 nM.

In turn, `Cn1cnnc1[C@]1(c2cccc(-n3ccc4c(C#N)c[nH]c4c3=O)c2)C[C@@H](C)C1` (single isomer, unassigned) [Example 28, 7-Oxo-6-{3-[(1s,3r)-3-methyl-1-(4-methyl-4H-1,2,4-triazol-3-yl)cyclobutyl]phenyl}-1H,6H,7H-pyrrolo[2,3-c]pyridine-3-carbonitrile] gave an IC50 of 100 to 1000 nM.

In the case of `Cn1cnnc1[C@]1(c2cccc(-n3ccc4cc[nH]c4c3=O)c2)C[C@H](C)C1` (single isomer, unassigned) [Example 30, 6-{3-[(1r,3s)-3-methyl-1-(4-methyl-4H-1,2,4-triazol-3-yl)cyclobutyl]phenyl}-1H,6H,7H-pyrrolo[2,3-c]pyridin-7-one], the IC50 fell in the range of 1000 to 5000 nM.

In the case of `Cn1cnnc1[C@]1(c2cccc(-n3ccc4cc[nH]c4c3=O)c2)C[C@@H](C)C1` (single isomer, unassigned) [Example 31, 6-{3-[(1s,3r)-3-methyl-1-(4-methyl-4H-1,2,4-triazol-3-yl)cyclobutyl]phenyl}-1H,6H,7H-pyrrolo[2,3-c]pyridin-7-one], the IC50 lay within 1000 to 5000 nM.

In the case of `Cn1cncc1-c1c[nH]c2c(=O)n(-c3cccc([C@]4(c5nncn5C)C[C@H](C)C4)c3)cc(C3CC3)c12` (single isomer, unassigned) [Example 35], the IC50 is less than 100 nM.

Regarding `CC(Sc1nncn1C)c1cccc(-n2cc(C3CC3)c3cc(CN4CCC[C@H](C)C4)[nH]c3c2=O)c1` (stereo partly drawn) [Example 2, 4-cyclopropyl-2-[[(3S)-3-methylpiperidin-1-yl]methyl]-6-[3-[1-[(4-methyl-1,2,4-triazol-3-yl)sulfanyl]ethyl]phenyl]-1H-pyrrolo[2,3-c]pyridin-7-one], the IC50 was in the range of 100 to 1000 nM.

For `CC1CC(c2cccc(-n3cc(C4CC4)c4cc(CN5CCC[C@H](C)C5)n(C)c4c3=O)c2)(c2nncn2C)C1` (stereo partly drawn) [Example 5, 4-cyclopropyl-1-methyl-6-[3-[3-methyl-1-(4-methyl-1,2,4-triazol-3-yl)cyclobutyl]phenyl]-2-[[(3S)-3-methylpiperidin-1-yl]methyl]pyrrolo[2,3-c]pyridin-7-one], the IC50 was more than 5000 nM.

As for `CC1CC(c2cccc(-n3cc(C4CC4)c4ccsc4c3=O)c2)(c2nncn2C)C1` (stereo not shown) [Example 6, 4-cyclopropyl-6-{3-[3-methyl-1-(4-methyl-4H-1,2,4-triazol-3-yl)cyclobutyl]phenyl}-6H,7H-thieno[2,3-c]pyridin-7-one], the IC50 was more than 5000 nM.

On to `Cn1cnnc1C1(c2cccc(-n3cc(C4CC4)c4cc[nH]c4c3=O)c2)CC2(CC2)C1` [Example 10, 4-cyclopropyl-6-[3-[5-(4-methyl-1,2,4-triazol-3-yl)spiro[2.3]hexan-5-yl]phenyl]-1H-pyrrolo[2,3-c]pyridin-7-one], for which the IC50 was 100 to 1000 nM.

For `CC1CC(c2cccc(-n3cc(C4CC4)c4nc[nH]c4c3=O)c2)(c2nncn2C)C1` (stereo not shown) [Example 11, 7-cyclopropyl-5-{3-[(1r,3s)-3-methyl-1-(4-methyl-4H-1,2,4-triazol-3-yl)cyclobutyl]phenyl}-3H,4H,5H-imidazo[4,5-c]pyridin-4-one], the IC50 was 100 to 1000 nM.

`Cc1c[nH]c2c(=O)n(-c3cccc([C@]4(c5nncn5C)C[C@@H](C)C4)c3)cc(C3CC3)c12` [Example 17, 4-Cyclopropyl-3-methyl-6-{3-[(1r,3s)-3-methyl-1-(4-methyl-4H-1,2,4-triazol-3-yl)cyclobutyl]phenyl}-1H,6H,7H-pyrrolo[2,3-c]pyridin-7-one] displayed an IC50 of 100 to 1000 nM.

The values are drawn from patent US20260028336A1 (Arcus Biosciences, Inc., priority 2022, published 2026).
